Here are results for seven molecules from paper PMC4608554 (Bioorganic & medicinal chemistry, 2015).

Several values for one entry are separate records, joined by “and”; a condition that tells them apart may be missing. Identical values can stand only once. Like-named read-outs stand apart in the source and are kept apart here.

Series [1] relates to iron-overloaded Cebus apella monkeys. The series can be described thus: Chelator-induced iron clearance. The class given is in vivo. Particulars: 75 µmol/kg, same animals po and sc.
Series [2] in a line: Tissue distribution/metabolism of chelators in rats. In kind it is in vivo, rat (male Sprague-Dawley). Particulars: for concentration in heart / presence in heart: rat heart; for presence in heart: later time points (2-8 h) after 11 sc 300 µmol/kg; for concentration in kidney: rat kidney; for share of the total drug (parent + metabolites) / presence in liver: rat liver; for concentration in pancreas: rat pancreas.

The subject of series [3] is non-iron-overloaded, bile duct-cannulated rats. The following applies: po, cited from earlier work.
In series [4] the test system is iron-overloaded Cebus apella monkeys. The following applies: po, cited from earlier work.
The conditions of series [5]: 2:1 complex with Fe(III); cited from earlier work.
Series [6] concerns rats. The following applies: cited from earlier work.
The conditions of series [7]: rat liver, 2 h, sc 300 µmol/kg; cited from earlier work.
For series [8] the following is noted: even when administered b.i.d.; cited from earlier work.
Series [9] has as its system rats. The following applies: rat, cited from earlier work.
In a further series the test system is patients. Particulars: cited from earlier work.
Setting [10] is: rat plasma, 4 h after 11 sc 300 µmol/kg.
[11] abbreviates: bile duct-cannulated rats, 150 µmol/kg.

For the molecule `C[C@]1(C(=O)O)CSC(c2ccc(OCCCC(=O)O)cc2O)=N1` [compound 13, (S)-4,5-dihydro-2-[2-hydroxy-4-(3-carboxypropyloxy)phenyl]-4-methyl-4-thiazolecarboxylic acid], the “sc ICE vs po ICE in the primates (times higher)” value in series [1] is 3.4 times. Also, the concentration in heart in series [2] (0.5 h after 11 sc 300 µmol/kg) and in series [2] (1 h after 11 sc 300 µmol/kg) was ~ 46 nmol/g wet weight throughout. In series [2], the presence in heart entry is “not found”. For the same molecule, the concentration in kidney in series [2] (0.5 h after 11 sc 300 µmol/kg) is on record as ~ 300 nmol/g wet weight; in series [2] (1 h after 11 sc 300 µmol/kg) it was ~ 300 nmol/g wet weight; in [2] (8 h after 11 sc 300 µmol/kg), “not detectable”. In addition, the “share of the total drug (parent + metabolites)” value (“share of the total drug” below) came to 71% in series [2] (0.5 h after 11 sc 300 µmol/kg), 73% in series [2] (1 h after 11 sc 300 µmol/kg), 66% in series [2] (2 h after 11 sc 300 µmol/kg) and 70% in series [2] (4 h after 11 sc 300 µmol/kg). For the same molecule, in series [2] (8 h after 11 sc 300 µmol/kg), the presence in liver result is reported as “no 13 remained”. The concentration in pancreas in series [2] (0.5 h after 11 sc 300 µmol/kg) amounted to 19 nmol/g wet weight; in series [2] (1 h after 11 sc 300 µmol/kg), 23 nmol/g wet weight. The “share of the total (parent + metabolites)” value in series [2] (rat plasma, 0.5 h after 11 sc 300 µmol/kg) is 62%; in series [2] (setting [10]), 50%. In addition, the “share of the total plasma drug concentration” value in series [2] (rat plasma, 8 h after 11 sc 300 µmol/kg) is recorded as 65%.
On to `C[C@]1(C(=O)O)CSC(c2ncccc2O)=N1` [compound 1, (S)-4,5-dihydro-2-(3-hydroxy-2-pyridinyl)-4-methyl-4-thiazolecarboxylic acid], for which the “Rodent ICE (%)” value in [3] (rat, 150 µmol/kg) is reported as 5.5 ± 3.2%. The “Primate ICE (%)” value in [4] (150 µmol/kg, historical, ref 41 (1), ref 53 (2)) was 16.1 ± 8.5%. The cumulative formation constant in [5] is reported as 4 × 10^29. Besides, in the series on rats [6], the “renal toxicity in rats” value is recorded as “unacceptable renal toxicity”.
For the molecule `COCCOCCOCCOc1cccc(C2=N[C@@](C)(C(=O)O)CS2)c1O` [compound 6, (S)-4,5-dihydro-2-[2-hydroxy-3-(3,6,9-trioxadecyloxy)phenyl]-4-methyl-4-thiazolecarboxylic acid], in series [3] (setting [11]), the ICE is recorded as 18.7 ± 2.9% and the iron decorporated is recorded as 0.782 ± 0.121 mg/kg. Also, the “quantity of iron excreted” value in [3] (bile duct-cannulated rats, 300 µmol/kg) is on record as 0.887 ± 0.367 mg/kg. For the same molecule, the “fraction of parent polyether cleaved to 2 (from 5) or 3 (from 6)” value in [7] is given as 2.6%. Further, the renal toxicity entry in series [8] is “no renal toxicity”.
With `COCCOCCOCCOc1ccc(C2=N[C@@](C)(C(=O)O)CS2)c(O)c1` [compound 5, (S)-4,5-dihydro-2-[2-hydroxy-4-(3,6,9-trioxadecyloxy)phenyl]-4-methyl-4-thiazolecarboxylic acid], the “fraction of parent polyether cleaved to 2 (from 5) or 3 (from 6)” value in series [7] is 2%. Further, the renal toxicity entry in series [8] is given as “no renal toxicity”.
For `COCCOCCOc1ccc(C2=N[C@@](C)(C(=O)O)CS2)c(O)c1` [compound 7, (S)-4,5-dihydro-2-[2-hydroxy-4-(3,6-dioxaheptyloxy)phenyl]-4-methyl-4-thiazolecarboxylic acid], the “cleavage of the terminal methyl of 7 to alcohol 8” value in series [2] (rat tissues, 7 sc 300 µmol/kg) is “did occur”. The “cleavage of 7 at the 4'-(HO) to 2” value in series [2] (rats, 7 sc 300 µmol/kg) is “does not sustain metabolic cleavage”. For the same molecule, the “Primate ICE (%)” value was 28.7 ± 12.4% in [4] (75 µmol/kg, as monosodium salt); ~ 26% and 26.3 ± 9.9% in series [4] (75 µmol/kg, in capsules). Further, the histopathology result with rats [9] (extensive tissues) is “no drug-related abnormalities were identified”. For the same molecule, in the series with rats [9] (up to 28 d), the “urinary Kim-1 excretion” value is “did not elicit any increases”.
As to `C[C@]1(C(=O)O)CSC(c2ccc(OCC(=O)O)cc2O)=N1` [compound 14, (S)-4,5-dihydro-2-[2-hydroxy-4-(carboxymethoxy)phenyl]-4-methyl-4-thiazolecarboxylic acid], the “sc ICE vs po ICE in the primates (times higher)” value in [1] turned out to be 5.3 times. In series [2] (0.5 h after 11 sc 300 µmol/kg), the concentration in heart came out at 17 nmol/g wet weight, the concentration in kidney turned out to be 156 nmol/g wet weight, the “share of the total drug” value came out at 18% and the concentration in pancreas result is reported as “Trace amounts”. Moreover, in [2] (1 h after 11 sc 300 µmol/kg), the concentration in heart turned out to be 23 nmol/g wet weight, the concentration in kidney turned out to be 201 nmol/g wet weight, the “share of the total drug” value is given as 25% and the concentration in pancreas entry is given as “Trace amounts”. The presence in heart result in [2] is “not found”. For the same molecule, in [2] (2 h after 11 sc 300 µmol/kg), the concentration in kidney was 161 nmol/g wet weight and the concentration in pancreas entry is recorded as “Trace amounts”. Moreover, in series [2] (8 h after 11 sc 300 µmol/kg), the concentration in kidney stood at 5 nmol/g wet weight and the presence in liver result is reported as “trace amounts”. Also, the “share of the total (parent + metabolites)” value in [2] (setting [10]) was determined as 50%.
As to `C[C@]1(C(=O)O)CSC(c2ccc(O)cc2O)=N1` [compound 2, (S)-2-(2,4-dihydroxyphenyl)-4,5-dihydro-4-methyl-4-thiazolecarboxylic acid], in the series on patients (5, 10, or 15 mg/kg/day once daily (s.i.d) for up to 12 weeks), the tolerability in patients entry is reported as “well tolerated”. The “renal toxicity in patients (increases in BUN and SCr)” value in the series with patients (b.i.d. 12.5 mg/kg (25 mg/kg/d), three patients after 4-5 weeks) is recorded as “unacceptable renal toxicity”.
